20 compounds from patent US12084472B2 (Ardelyx, Inc., priority 2015, dated 2024) can be followed below.

This assay concerns the target T1, human TGR5 (Homo sapiens, UniProt Q8TDU6).
T1 construct: expressed in transfected cells; host or cells: HEK293
T1 sequence (Q8TDU6 1-330): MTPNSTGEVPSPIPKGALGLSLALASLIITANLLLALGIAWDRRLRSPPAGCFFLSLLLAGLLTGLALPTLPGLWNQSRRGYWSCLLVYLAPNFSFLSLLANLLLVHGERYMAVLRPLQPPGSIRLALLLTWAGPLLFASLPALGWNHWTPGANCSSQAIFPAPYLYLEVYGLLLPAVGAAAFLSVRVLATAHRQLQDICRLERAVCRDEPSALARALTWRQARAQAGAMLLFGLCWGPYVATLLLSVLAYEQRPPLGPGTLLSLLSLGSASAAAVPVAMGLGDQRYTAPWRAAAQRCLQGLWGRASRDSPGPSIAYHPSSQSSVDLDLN
Nature of the assay: Cell-based TGR5 assay (cAMP generation, HTRF). Conditions: HEK293 cells stably transfected with human TGR5; cAMP by HTRF; 30 minutes at 37° C.; read-out: pEC50 Human TGR5 (converted). The method, boiled down:
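First, compounds in 3-fold serial dilution were placed in HBSS with 10 mM HEPES pH 7.4 and 0.5 mM IBMX. Next, human TGR5-expressing HEK293 cells were added and incubated 30 min at 37° C. Finally, cAMP was detected by HTRF and pEC50 derived by logistic fitting.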
For `O=C(NCCCCC[S+]([O-])c1ccc(Cl)c(COC2(c3cnccc3-c3ccccc3OC3CC3)CC2)c1)[C@@H](O)[C@@H](O)[C@H](O)[C@@H](O)CO` (stereo partly drawn) [Compound I-607, (2S,3S,4R,5S)-N-{5-[4-chloro-3-({1-[4-(2-cyclopropoxyphenyl)pyridin-3-yl]cyclopropoxy}methyl)benzenesulfinyl]pentyl}-2,3,4,5,6-pentahydroxyhexanamide], the EC50 is below 100 nM.
As for `CCN(CCCCc1cc(Cl)c(COC2(c3cnccc3-c3ccccc3OC3CC3)CC2)cc1C)C(=O)NC[C@H](O)[C@@H](O)[C@H](O)[C@H](O)CO` [Compound I-96, 1-(4-(5-chloro-4-((1-(4-(2-cyclopropoxyphenyl)pyridin-3-yl)cyclopropoxy)methyl)-2-methylphenyl)butyl)-1-ethyl-3-((2S,3R,4R,5R)-2,3,4,5,6-pentahydroxyhexyl)urea], the figure is below 100 nM; as for `CCC(=O)OC[C@H](NC(=O)NCCCCN(C)S(=O)(=O)c1ccc(Cl)c(COC2(c3cnccc3-c3ccccc3OC3CC3)CC2)c1)[C@@H](OC(=O)CC)[C@H](OC(=O)CC)[C@@H](COC(=O)CC)OC(=O)CC` [Compound I-738, (2R,3S,4R,5S)-5-[[(4-[N-methyl[4-chloro-3-([1-[4-(2-cyclopropoxyphenyl)pyridin-3-yl]cyclopropoxy]methyl)benzene]sulfonamido]butyl)carbamoyl]amino]-1,2,4,6-tetrakis(propanoyloxy)hexan-3-yl propanoate], 126 to 1000 nM; as for `O=C(O)CCCNC(=O)N(CCCCc1cc(Cl)c(COC2(c3cnccc3-c3ccccc3OC3CC3)CC2)cc1Cl)C[C@H](O)[C@@H](O)[C@H](O)[C@H](O)CO` [Compound I-199, 4-[({4-[2,5-dichloro-4-({1-[4-(2-cyclopropoxyphenyl)pyridin-3-yl]cyclopropoxy}methyl)phenyl]butyl}[(2S,3R,4R,5R)-2,3,4,5,6-pentahydroxyhexyl]carbamoyl)amino]butanoic acid], 126 to 1000 nM.
As for `COCCCN(C[C@H](O)[C@@H](O)[C@H](O)[C@H](O)CO)C(=O)CCCC(C)c1ccc(C)c(CNC2(c3cnccc3-c3ccccc3OC3CC3)CC2)c1` (stereo partly drawn) [Compound I-362, 5-{3-[({1-[4-(2-cyclopropoxyphenyl)pyridin-3-yl]cyclopropyl}amino)methyl]-4-methylphenyl}-N-(3-methoxypropyl)-N-[(2S,3R,4R,5R)-2,3,4,5,6-pentahydroxyhexyl]hexanamide], the figure is below 100 nM; as for `CCCN(C[C@H](O)[C@@H](O)[C@H](O)[C@H](O)CO)C(=O)CCCC(C)c1ccc(C)c(CNC2(c3cnccc3-c3ccccc3OC3CC3)CC2)c1` (stereo partly drawn) [Compound I-354, 5-{3-[({1-[4-(2-cyclopropoxyphenyl)pyridin-3-yl]cyclopropyl}amino)methyl]-4-methylphenyl}-N-[(2S,3R,4R,5R)-2,3,4,5,6-pentahydroxyhexyl]-N-propylhexanamide], below 100 nM; as for `O=CN(CCCCc1cc(Cl)c(COC2(c3cnccc3-c3ccccc3OC3CC3)CC2)cc1Cl)C[C@H](O)[C@@H](O)[C@H](O)[C@H](O)CO` [Compound I-80, N-(4-(2,5-dichloro-4-((1-(4-(2-cyclopropoxyphenyl)pyridin-3-yl)cyclopropoxy)methyl)phenyl)butyl)-N-((2S,3R,4R,5R)-2,3,4,5,6-pentahydroxyhexyl)formamide], below 100 nM.
The same measure for `Clc1ccc(Cl)c(CNC2(c3cnccc3-c3ccccc3OC3COC3)CC2)c1` [Compound I-19, N-[(2,5-dichlorophenyl)methyl]-1-{4-[2-(oxetan-3-yloxy)phenyl]pyridin-3-yl}cyclopropan-1-amine]: below 100 nM; for `Cc1cc(COC2(c3cnccc3-c3ccccc3OC3CC3)CC2)c(C)cc1CCCCNC(=O)NC[C@H](O)[C@@H](O)[C@H](O)[C@H](O)CO` (stereo in doubt) [Compound I-150, 1-{4-[4-({1-[4-(2-cyclopropoxyphenyl)pyridin-3-yl]cyclopropoxy}methyl)-2,5-dimethylphenyl]butyl}-3-[(2S,3R,4R,5R)-2,3,4,5,6-pentahydroxyhexyl]urea]: below 100 nM.
Regarding `CC(=O)N(CCCSc1ccc(Cl)c(COC2(c3cnccc3-c3ccccc3OC3CC3)CC2)c1)C[C@H](O)[C@@H](O)[C@H](O)[C@H](O)CO` [Compound I-500, N-(3-{[4-chloro-3-({1-[4-(2-cyclopropoxyphenyl)pyridin-3-yl]cyclopropoxy}methyl)phenyl]sulfanyl}propyl)-N-[(2S,3R,4R,5R)-2,3,4,5,6-pentahydroxyhexyl]acetamide], the EC50 is below 100 nM.
For the compound `O=C(/C=C/C1CCN(S(=O)(=O)c2ccc(Cl)c(COC3(c4cnccc4-c4ccccc4OC4CC4)CC3)c2)C1)NC[C@H](O)[C@@H](O)[C@H](O)[C@H](O)CO` (stereo partly drawn) [Compound I-450, (2E)-3-{1-[4-chloro-3-({1-[4-(2-cyclopropoxyphenyl)pyridin-3-yl]cyclopropoxy}methyl)benzenesulfonyl]pyrrolidin-3-yl}-N-[(2S,3R,4R,5R)-2,3,4,5,6-pentahydroxyhexyl]prop-2-enamide], the EC50 is below 100 nM.
Regarding `CC(CCCCC(=O)O)c1ccc(Cl)c(CNC2(c3cnccc3-c3ccccc3OC3CC3)CC2)c1` (centres unmarked) [Compound I-249, 6-{4-chloro-3-[({1-[4-(2-cyclopropoxyphenyl)pyridin-3-yl]cyclopropyl}amino)methyl]phenyl}heptanoic acid], the EC50 is below 100 nM.
The same measure for `O=C(CCCCCNS(=O)(=O)c1ccc(Cl)c(COC2(c3cnccc3-c3ccccc3OC3CC3)CC2)c1)NC[C@H](O)[C@@H](O)[C@H](O)[C@H](O)CO` [Compound I-431, 6-[4-chloro-3-({1-[4-(2-cyclopropoxyphenyl)pyridin-3-yl]cyclopropoxy}methyl)benzenesulfonamido]-N-[(2S,3R,4R,5R)-2,3,4,5,6-pentahydroxyhexyl]hexanamide]: below 100 nM.
The same measure for `CC(C)N(CCCCNC(=O)N[C@@H](CO)[C@@H](O)[C@H](O)[C@H](O)CO)S(=O)(=O)c1ccc(Cl)c(COC2(c3cnccc3-c3ccccc3OC3CC3)CCOC2)c1` (stereo partly drawn) [Compound I-749, 4-chloro-3-(((3-(4-(2-cyclopropoxyphenyl)pyridin-3-yl)tetrahydrofuran-3-yl)oxy)methyl)-N-isopropyl-N-(4-(3-((2S,3R,4S,5R)-1,3,4,5,6-pentahydroxyhexan-2-yl)ureido)butyl)benzenesulfonamide]: below 100 nM; for `O=C(O)CCCC(=O)N(CCCCc1cc(Cl)c(COC2(c3cnccc3-c3ccccc3OC3CC3)CC2)cc1Cl)C[C@H](O)[C@@H](O)[C@H](O)[C@H](O)CO` [Compound I-182, 4-({4-[2,5-dichloro-4-({1-[4-(2-cyclopropoxyphenyl)pyridin-3-yl]cyclopropoxy}methyl)phenyl]butyl}[(2S,3R,4R,5R)-2,3,4,5,6-pentahydroxyhexyl]carbamoyl)butanoic acid]: below 100 nM; for `O=C(NCCCCc1cc(Cl)c(CNC2(c3cnccc3-c3ccccc3OC3COC3)CC2)cc1Cl)NC[C@H](O)[C@@H](O)[C@H](O)[C@H](O)CO` [Compound I-174, 1-[4-(2,5-dichloro-4-([(1-{4-[2-(oxetan-3-yloxy)phenyl]pyridin-3-yl}cyclopropyl)amino]methyl)phenyl)butyl]-3-[(2S,3R,4R,5R)-2,3,4,5,6-pentahydroxyhexyl]urea]: 126 to 1000 nM.
The same measure for `Cc1ccc(C)c(CNC2(c3cnccc3-c3ccccc3OC3CC3)CC2)c1` [Compound I-24, 1-[4-(2-cyclopropoxyphenyl)pyridin-3-yl]-N-[(2,5-dimethylphenyl)methyl]cyclopropan-1-amine]: below 100 nM; for `O=C([C@@H](O)[C@@H](O)[C@H](O)[C@@H](O)CO)N(CCCSc1ccc(Cl)c(CNC2(c3cnccc3-c3ccccc3OC3CC3)CC2)c1)CCN1CCS(=O)(=O)CC1` [Compound I-530, (2S,3S,4R,5S)-N-[3-({4-chloro-3-[({1-[4-(2-cyclopropoxyphenyl)pyridin-3-yl]cyclopropyl)amino)methyl]phenyl}sulfanyl)propyl]-N-[2-(1,1-dioxo-1λ^6,4-thiomorpholin-4-yl)ethyl]-2,3,4,5,6-pentahydroxyhexanamide]: 126 to 1000 nM; for `CN(C[C@H](O)[C@@H](O)[C@H](O)[C@H](O)CO)C(=O)CCN(CCC(=O)N(C)C[C@H](O)[C@@H](O)[C@H](O)[C@H](O)CO)C(=O)CCCCc1cc(Cl)c(COC2(c3cnccc3-c3ccccc3OC3CC3)CC2)cc1Cl` [Compound I-169, 5-[2,5-dichloro-4-({1-[4-(2-cyclopropoxyphenyl)pyridin-3-yl]cyclopropoxy}methyl)phenyl]-N,N-bis(2-{methyl[(2S,3R,4R,5R)-2,3,4,5,6-pentahydroxyhexyl]carbamoyl}ethyl)pentanamide]: 126 to 1000 nM.
As for `CN(CCCCCc1cc(Cl)c(COC2(c3cnccc3-c3ccccc3OC3CC3)CC2)cc1Cl)C(=O)[C@@H](O)[C@@H](O)[C@H](O)[C@@H](O)CO` (stereo in doubt) [Compound I-228, (2S,3S,4R,5S)-N-{5-[2,5-dichloro-4-({1-[4-(2-cyclopropoxyphenyl)pyridin-3-yl]cyclopropoxy}methyl)phenyl]pentyl}-2,3,4,5,6-pentahydroxy-N-methylhexanamide], the EC50 is below 100 nM.
